From patent publication US20100099561A1, “HETEROBICYCLIC ALKYLTHIO-BRIDGED ISOXAZOLINES” (E.I. DU PONT DE NEMOURS AND COMPANY, priority 2008, published 2010)

What was measured:
Format in all cases: in vivo
[1] = test system: large crabgrass (Digitaria sanguinalis); assay: Test B preemergence, large crabgrass; conditions: scale 0 to 100
Excerpt: (§1) Seeds of plant species selected from blackgrass (Alopecurus myosuroides), downy bromegrass (Bromus tectorum), green foxtail (Setaria viridis), Italian ryegrass (Lolium multiflorum), wheat (Triticum aestivum), wild oat (Avena fatua), catchweed bedstraw (Galium aparine), bermudagrass (Cynodon dactylon), Surinam grass (Brachiaria decumbens), cocklebur (Xanthium strumarium), corn (Zea mays), large crabgrass (Digitaria sanguinalis), woolly cupgrass (Eriochloa villosa), giant foxtail (Setaria faberii), goosegrass (Eleusine indica), johnsongrass (Sorghum halepense), kochia (Kochia scoparia), lambsquarters (Chenopodium album), morningglory (Ipomoea coccinea), nightshade (eastern black nightshade, Solanum ptycanthum), yellow nutsedge (Cyperus esculentus), pigweed (Amaranthus retroflexus), ragweed (common ragweed, Ambrosia elatior), soybean (Glycine max), sunflower (common oilseed sunflower, Helianthus annuus), Russian thistle (Salsola kali), and velvetleaf (Abutilon theophrasti) were planted into a blend of loam soil and sand and treated preemergence with test compounds formulated in a non-phytotoxic solvent mixture which included a surfactant. Treated plants and controls were maintained in a greenhouse for 13 to 15 days, after which time all species were compared to controls and visually evaluated. Plant response ratings, summarized in Table B, are based on a scale of 0 to 100 where 0 is no effect and 100 is complete control. A dash (-) response means no test result.

corn (Zea mays) [2] = assay: Test A preemergence, corn; conditions: 0 to 100 scale (0 no effect, 100 complete control)
Outline: (§2)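 Seeds planted in loam–sand blend; compounds in non-phytotoxic solvent with surfactant applied as directed preemergence soil spray, or postemergence to plants 2–10 cm tall at one- to two-leaf stage. After ~10 days in greenhouse, injury rated visually versus untreated controls on 0–100 scale (100 = complete control).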

[3] = test system: velvetleaf (Abutilon theophrasti); assay: Test B preemergence, velvetleaf; conditions: Preemergence, scale 0 to 100
Outline: (§3)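 Untreated controls served as reference for visual evaluation at 13 to 15 days. Seeds in a sand–loam blend had been treated preemergence with surfactant-containing non-phytotoxic formulation; scale 0 = no effect, 100 = complete control; dash indicates no result.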

[4] = test system: bermudagrass (Cynodon dactylon); assay: Test B preemergence, bermudagrass; conditions: scale 0 to 100
Excerpt: as §1

[5] = test system: giant foxtail (Setaria faberi); assay: Test A preemergence, giant foxtail; conditions: 0 to 100 scale (0 no effect, 100 complete control)
Outline: as §2

[6] = test system: pigweed (Amaranthus retroflexus); assay: Test A preemergence, pigweed; conditions: 0 to 100 scale (0 no effect, 100 complete control)
Outline: as §2

soybean (Glycine max) = assay: Test B preemergence, soybean; conditions: Preemergence, scale 0 to 100
Outline: as §3

[7] = test system: large crabgrass (Digitaria sanguinalis); assay: Test A preemergence, large crabgrass; conditions: 0 to 100 scale (0 no effect, 100 complete control)
Outline: as §2

[8] = test system: Surinam grass (Brachiaria decumbens); assay: Test B preemergence, Surinam grass; conditions: Preemergence, scale 0 to 100
Outline: as §3

[9] = test system: nightshade (eastern black nightshade, Solanum ptycanthum); assay: Test B preemergence, nightshade; conditions: scale 0 to 100
Excerpt: as §1

[10] = test system: morningglory (Ipomoea spp.); assay: Test A preemergence, morningglory; conditions: 0 to 100 scale (0 no effect, 100 complete control)
Outline: as §2

[11] = test system: velvetleaf (Abutilon theophrasti); assay: Test A preemergence, velvetleaf; conditions: 0 to 100 scale (0 no effect, 100 complete control)
Outline: as §2

[12] = test system: giant foxtail (Setaria faberi); assay: Test A postemergence, giant foxtail; conditions: 0 to 100 scale (0 no effect, 100 complete control)
Outline: as §2

[13] = test system: woolly cupgrass (Eriochloa villosa); assay: Test B preemergence, woolly cupgrass; conditions: scale 0 to 100
Excerpt: as §1

corn (Zea mays) [14] = assay: Test B preemergence, corn; conditions: scale 0 to 100
Excerpt: as §1

[15] = test system: umbrella sedge (Cyperus difformis); assay: Test B flooded paddy test, umbrella sedge; conditions: Flood, scale 0 to 100
Outline: (§4)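 2-leaf plants; pots flooded 3 cm above soil; compound added to paddy water; depth maintained. Greenhouse 13–15 d. Visual rating vs controls, 0 (no effect) to 100 (complete control); dash = no result.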

[16] = test system: barnyardgrass (Echinochloa crus-galli); assay: Test A preemergence, barnyardgrass; conditions: 0 to 100 scale (0 no effect, 100 complete control)
Outline: as §2

[17] = test system: wheat (Triticum aestivum); assay: Test A preemergence, wheat; conditions: 0 to 100 scale (0 no effect, 100 complete control)
Outline: as §2

[18] = test system: catchweed bedstraw (Galium aparine); assay: Test B preemergence, catchweed bedstraw; conditions: scale 0 to 100
Excerpt: as §1

[19] = test system: barnyardgrass (Echinochloa crus-galli); assay: Test B flooded paddy test, barnyardgrass; conditions: Flood
Outline: as §4

[20] = 250 g ai/ha, scale 0 to 100 (0 no effect, 100 complete control)

CC1(C)CC(S(=O)(=O)Cc2c(C(F)(F)F)nc3n(c2=O)CCC3)=NO1 [Compound 11, 3-[[(4,5-dihydro-5,5-dimethyl-3-isoxazolyl)sulfonyl]methyl]-7,8-dihydro-2-(trifluoromethyl)pyrrolo[1,2-α]pyrimidin-4(6H)-one]
20: Plant response rating, Sedge, Umbrella ([15]; 250 g ai/ha) | Plant response rating, Barnyardgrass [19, 20]
98: Plant response rating, Nightshade ([9]; 125 g ai/ha) | Plant response rating, Galium ([18]; 125 g ai/ha)
60: Plant response rating, Nightshade ([9]; 31 g ai/ha) | Plant response rating, Velvetleaf ([11]; 500 g ai/ha) | Plant response rating, Barnyardgrass ([16]; 125 g ai/ha) | Plant response rating, Wheat ([17]; 500 g ai/ha)
100: Plant response rating, Crabgrass, Large ([1]; 62 g ai/ha) | Plant response rating, Crabgrass, Large ([1]; 125 g ai/ha) | Plant response rating, Bermudagrass ([4]; 31 g ai/ha) | Plant response rating, Bermudagrass ([4]; 62 g ai/ha) | Plant response rating, Bermudagrass ([4]; 125 g ai/ha) | Plant response rating, Foxtail, Giant ([5]; 500 g ai/ha) | Plant response rating, Pigweed ([6]; 500 g ai/ha) | Plant response rating, Cupgrass, Woolly ([13]; 31 g ai/ha) | Plant response rating, Cupgrass, Woolly ([13]; 62 g ai/ha) | Plant response rating, Cupgrass, Woolly ([13]; 125 g ai/ha)
95: Plant response rating, Nightshade ([9]; 62 g ai/ha) | Plant response rating, Galium ([18]; 62 g ai/ha)
80: Plant response rating, Crabgrass, Large ([7]; 125 g ai/ha) | Plant response rating, Foxtail, Giant ([12]; 125 g ai/ha) | Plant response rating, Foxtail, Giant ([12]; 500 g ai/ha)
65: Plant response rating, Crabgrass, Large ([1]; 16 g ai/ha) | Plant response rating, Velvetleaf ([3]; 125 g ai/ha) | Plant response rating, Bermudagrass ([4]; 16 g ai/ha)
85: Plant response rating, Crabgrass, Large ([1]; 31 g ai/ha) | Plant response rating, Surinam Grass ([8]; 125 g ai/ha) | Plant response rating, Cupgrass, Woolly ([13]; 16 g ai/ha)
10: Plant response rating, Velvetleaf ([11]; 125 g ai/ha)
30: Plant response rating, Pigweed ([6]; 125 g ai/ha) | Plant response rating, Morningglory ([10]; 125 g ai/ha)
90: Plant response rating, Foxtail, Giant ([5]; 125 g ai/ha) | Plant response rating, Crabgrass, Large ([7]; 500 g ai/ha) | Plant response rating, Morningglory ([10]; 500 g ai/ha) | Plant response rating, Barnyardgrass ([16]; 500 g ai/ha)
0: Plant response rating, Corn (corn (Zea mays) [2]; 125 g ai/ha) | Plant response rating, Corn (corn (Zea mays) [2]; 500 g ai/ha) | Plant response rating, Velvetleaf ([3]; 16 g ai/ha) | Plant response rating, Velvetleaf ([3]; 31 g ai/ha) | Plant response rating, Velvetleaf ([3]; 62 g ai/ha) | Plant response rating, Soybean (soybean (Glycine max); 16 g ai/ha) | Plant response rating, Soybean (soybean (Glycine max); 31 g ai/ha) | Plant response rating, Soybean (soybean (Glycine max); 62 g ai/ha) | Plant response rating, Soybean (soybean (Glycine max); 125 g ai/ha) | Plant response rating, Surinam Grass ([8]; 16 g ai/ha) | Plant response rating, Surinam Grass ([8]; 31 g ai/ha) | Plant response rating, Surinam Grass ([8]; 62 g ai/ha) | Plant response rating, Nightshade ([9]; 16 g ai/ha) | Plant response rating, Corn (corn (Zea mays) [14]; 16 g ai/ha) | Plant response rating, Corn (corn (Zea mays) [14]; 31 g ai/ha) | Plant response rating, Corn (corn (Zea mays) [14]; 62 g ai/ha) | Plant response rating, Corn (corn (Zea mays) [14]; 125 g ai/ha) | Plant response rating, Sedge, Umbrella ([15]; 31 g ai/ha) | Plant response rating, Sedge, Umbrella ([15]; 62 g ai/ha) | Plant response rating, Sedge, Umbrella ([15]; 125 g ai/ha) | Plant response rating, Wheat ([17]; 125 g ai/ha) | Plant response rating, Galium ([18]; 16 g ai/ha) | Plant response rating, Galium ([18]; 31 g ai/ha) | Plant response rating, Barnyardgrass ([19]; 31 g ai/ha, scale 0 to 100) | Plant response rating, Barnyardgrass ([19]; 62 g ai/ha, scale 0 to 100) | Plant response rating, Barnyardgrass ([19]; 125 g ai/ha, scale 0 to 100)

CC1(C)CC(S(=O)(=O)Cc2c(C(F)(F)F)nc3n(c2=O)CCS3)=NO1 [Compound 6]
90: Plant response rating, Morningglory ([10]; 125 g ai/ha) | Plant response rating, Foxtail, Giant ([12]; 500 g ai/ha) | Plant response rating, Barnyardgrass ([16]; 500 g ai/ha)
80: Plant response rating, Foxtail, Giant ([5]; 125 g ai/ha) | Plant response rating, Crabgrass, Large ([7]; 125 g ai/ha) | Plant response rating, Velvetleaf ([11]; 500 g ai/ha) | Plant response rating, Foxtail, Giant ([12]; 125 g ai/ha)
45: Plant response rating, Nightshade ([9]; 31 g ai/ha)
70: Plant response rating, Barnyardgrass ([16]; 125 g ai/ha)
95: Plant response rating, Crabgrass, Large ([1]; 16 g ai/ha) | Plant response rating, Nightshade ([9]; 62 g ai/ha)
75: Plant response rating, Sedge, Umbrella ([15]; 250 g ai/ha)
50: Plant response rating, Galium ([18]; 31 g ai/ha) | Plant response rating, Galium ([18]; 62 g ai/ha)
0: Plant response rating, Corn (corn (Zea mays) [2]; 125 g ai/ha) | Plant response rating, Corn (corn (Zea mays) [2]; 500 g ai/ha) | Plant response rating, Velvetleaf ([3]; 16 g ai/ha) | Plant response rating, Velvetleaf ([3]; 31 g ai/ha) | Plant response rating, Velvetleaf ([3]; 62 g ai/ha) | Plant response rating, Velvetleaf ([3]; 125 g ai/ha) | Plant response rating, Soybean (soybean (Glycine max); 16 g ai/ha) | Plant response rating, Soybean (soybean (Glycine max); 31 g ai/ha) | Plant response rating, Soybean (soybean (Glycine max); 62 g ai/ha) | Plant response rating, Soybean (soybean (Glycine max); 125 g ai/ha) | Plant response rating, Nightshade ([9]; 16 g ai/ha) | Plant response rating, Velvetleaf ([11]; 125 g ai/ha) | Plant response rating, Corn (corn (Zea mays) [14]; 16 g ai/ha) | Plant response rating, Corn (corn (Zea mays) [14]; 31 g ai/ha) | Plant response rating, Corn (corn (Zea mays) [14]; 62 g ai/ha) | Plant response rating, Corn (corn (Zea mays) [14]; 125 g ai/ha) | Plant response rating, Sedge, Umbrella ([15]; 62 g ai/ha) | Plant response rating, Wheat ([17]; 125 g ai/ha) | Plant response rating, Wheat ([17]; 500 g ai/ha) | Plant response rating, Galium ([18]; 16 g ai/ha) | Plant response rating, Barnyardgrass ([19]; 62 g ai/ha, scale 0 to 100) | Plant response rating, Barnyardgrass [19, 20]
98: Plant response rating, Surinam Grass ([8]; 62 g ai/ha) | Plant response rating, Nightshade ([9]; 125 g ai/ha) | Plant response rating, Cupgrass, Woolly ([13]; 31 g ai/ha) | Plant response rating, Cupgrass, Woolly ([13]; 62 g ai/ha)
60: Plant response rating, Pigweed ([6]; 125 g ai/ha) | Plant response rating, Surinam Grass ([8]; 31 g ai/ha) | Plant response rating, Cupgrass, Woolly ([13]; 16 g ai/ha)
20: Plant response rating, Surinam Grass ([8]; 16 g ai/ha)
100: Plant response rating, Crabgrass, Large ([1]; 31 g ai/ha) | Plant response rating, Crabgrass, Large ([1]; 62 g ai/ha) | Plant response rating, Crabgrass, Large ([1]; 125 g ai/ha) | Plant response rating, Bermudagrass ([4]; 16 g ai/ha) | Plant response rating, Bermudagrass ([4]; 31 g ai/ha) | Plant response rating, Bermudagrass ([4]; 62 g ai/ha) | Plant response rating, Bermudagrass ([4]; 125 g ai/ha) | Plant response rating, Foxtail, Giant ([5]; 500 g ai/ha) | Plant response rating, Pigweed ([6]; 500 g ai/ha) | Plant response rating, Crabgrass, Large ([7]; 500 g ai/ha) | Plant response rating, Surinam Grass ([8]; 125 g ai/ha) | Plant response rating, Morningglory ([10]; 500 g ai/ha) | Plant response rating, Cupgrass, Woolly ([13]; 125 g ai/ha) | Plant response rating, Galium ([18]; 125 g ai/ha)
